# Measured values: US20070270350A1, “Methods and Compositions for the Prevention and Treatment of Inflammatory Diseases or Conditions” (MUSC FOUNDATION FOR RESEARCH DEVELOPMENT, priority 2003, published 2007)
# How the values were obtained:
# Format in all cases: cell-based, rat
# ERK1/2 = ERK1/2 phosphorylation by immunoblot after LPS/IFN; conditions: exogenous LacCer with D-PDMP
# Method: (§1) Western Blot Analysis. For iNOS protein, the cells were washed with cold Tris buffered saline (TBS; 20 mM Trizma base, and 137 mM NaCl, pH 7.5), lysed in 1×SDS sample loading buffer (62.5 mM Trizma base, 2% w/v SDS, 10% glycerol), following sonication and centrifugation at 1,5000×g for 5 min, the supernatant was used for the iNOS western immunoblot assay. The protein concentration of samples was determined with the detergent compatible protein assay reagent (Bio-Rad Laboratories, CA) using bovine serum albumin (BSA) as the standard. Sample was boiled for 3 min with 0.1 volumes of 10% O-mercaptoethanol and 0.5% bromophenol blue mix. Fifty μg of total cellular protein was resolved by electrophoresis in 8 or 12% polyacrylamide gels, electro-transferred to polyvinylidene difluoride (PVDF) filter and blocked with Tween 20 containing Tris-buffered saline [TBST; 10 mM Trizma base (pH 7.4), 1% Tween 20, and 150 mM NaCl] with 5% skim milk. After incubation with antiserum against iNOS (BD PharMingen, CA), or hRas (Upstate Biotechnology, CA), or phospho-specific MAPK (p42/44) (Signal Transduction), in PVDF buffer for 2 h at room temperature, the filters were washed 3 times with TBST buffer and then incubated with horseradish peroxidase conjugated anti-rabbit or mouse IgG for 1 h. The membranes were autoradiographed by using ECL-plus (Amersham Pharmacia Biotech) after washing with TBST buffer.
# NF-κB = NF-κB reporter, gel shift and IκB phosphorylation after LPS/IFN
# Method: as §1
# Nuclear Extraction and Electrophoretic mobility shift assay. Nuclear extracts from cells (1×10^7 cells) were prepared using previously published method (Dignam et al., 1983) with slight modification. Cells were harvested, washed twice with ice-cold TBS, and lysed in 400 μl of buffer A containing, 10 mM KCl, 2 mM MgCl2, 0.5 mM dithiothreitol, protease inhibitor cocktail (Sigma), and 0.1% Nonidet P40 in 10 mM HEPES, pH 7.9 for 10 min on ice. Following centrifugation at 5,000×g for 10 min, the pelleted nuclei were washed with buffer A without Nonidet P40, and re-suspended in 40 μl of buffer B containing 25% (v/v) glycerol, 0.42 M NaCl, 1.5 mM MgCl2, 0.2 mM EDTA, 0.5 mM dithiothreitol, and Complete™ protease inhibitor cocktail (Roche) in 20 mM HEPES, pH7.9 for 30 min on ice. The lysates were centrifuged at 15,000×g for 15 min and the supernatants containing the nuclear proteins were stored at −70° C. until use. Ten μg of nuclear proteins was used for the electrophoretic mobility shift assay for detection of AP-1, NFκB, and C/EBP DNA binding activities. DNA-protein binding reactions were carried out at room temperature for 20 min in 10 mM Trizma base (pH 7.9), 50 mM NaCl, 5 mM MgCl2, 1 mM EDTA, 1 mM dithiothreitol, 1 μg poly (dl-dC), 5% (v/v) glycerol, and approximately 0.3 pmol of NFκB (Santa Cruz Biotech) labeled with DIG-ddUTP using terminal deoxynucleotidyl transferase (Roche). Protein-DNA complexes were resolved from protein-free DNA in 5% polyacrylamide gels at room temperature in 50 mM Tris, pH 8.3, 0.38 M glycine, and 2 mM EDTA, and electroblotted onto positively charged nylon membranes. The chemiluminescence detection method for DIG-labeled probes is identical to the method described for the non-isotopic northern blot analysis in the preceding.
# Transient Transfections and Reporter Gene Assay. 3×10^5 cells/well were cultured in 6-well plates for one day before the transfection. Transfection was performed with plasmid concentration constant (2.5 μg/transfection) and 8 μl of Fugene transfection reagent (Roche Molecular Biochemicals). One day after transfection, the cells were placed in serum free media for overnight. Following appropriate treatment, the cells were washed with phosphate buffered saline (PBS), scrapped, and then resuspended with 100 μl of lysis buffer (40 mM of Tricine pH 7.8, 50 mM of NaCl, 2 mM of EDTA, 1 mM of MgSO4, 5 mM of dithiothreitol, and 1% of Triton X-100). After incubation in room temperature for 15 min with occasional vortexing, the samples were centrifuged. […]
# small GTPase Ras = experiment: Quantification of Ras activation (GST-Raf-1 Ras binding domain); conditions: exogenous LacCer with D-PDMP
# Method: Quantification of Ras Activation. After stimulation, primary astrocytes in 6 well plates were washed with PBS and lysed in membrane lysis buffer (MLB; 0.5 ml of 25 mM HEPES, pH7.5, 150 mM NaCl, 1% Igepal CA-630, 0.25% sodium deoxycholate, 10% glycerol, 10 mM MgCl2, 1 mM EDTA, 25 mM NaF, 1 mM of sodium orthovanadate, and EDTA free Complete™ protease inhibitor cocktail). After centrifugation (5,000×g) at 4° C. for 5 min, supernatant was used for Ras activation assay. One hundred μg of supernatant was used for binding with agarose conjugated Ras-binding domain (RBD) of Raf-1 which was expressed in BL21 (Invitrogen) Escherichia coli strain transformed by pGEX-2T-GST-RBD in the presence of 0.1 mM of IPTG as described previously (Herrmann et al., 1995). The binding reaction was performed at 4° C. for 30 min in MLB. Following washing with MLB three times, Ras-RBD complex were denatured by adding of 2×SDS sample buffer. Ras protein was identified by western immunoblot analysis with Ras antibodies from Upstate Biotechnology.
# iNOS [1] = experiment: LPS/IFN-induced NO production and iNOS expression in C6 glioma cells; conditions: exogenous glycosphingolipid with D-PDMP
# Method: C6 rat glioma cells obtained from ATCC were maintained in Dulbecco's modified Eagle's medium (DMEM) (GIBCO, CA) containing 10% fetal bovine serum (FBS) (GIBCO) and 10 ? g/ml gentamicin. All the cultured cells were maintained at 37° C. in 5% CO2/95% air. At 80% confluency, the cells were incubated with serum free DMEM medium for 24 h prior to the incubation with LPS/IFN ? and other chemicals. Assay for NO production. Cells were cultured in 12-well plastic tissue culture plates. After the appropriate treatment, production of NO was determined by an assay of the culture supernatant for nitrite (Green et al., 1982). Briefly, 100 μl of culture supernatant was allowed to react with 100 μl of Griess reagent. The optical density of the assay samples was measured spectrophotometrically at 570 nm. Nitrite concentrations were calculated from a standard curve derived from the reaction of NaNO2 in fresh media. Western Blot Analysis. […] The protein concentration of samples was determined with the detergent compatible protein assay reagent (Bio-Rad Laboratories, CA) using bovine serum albumin (BSA) as the standard. Sample was boiled for 3 min with 0.1 volumes of 10% O-mercaptoethanol and 0.5% bromophenol blue mix. Fifty μg of total cellular protein was resolved by electrophoresis in 8 or 12% polyacrylamide gels, electro-transferred to polyvinylidene difluoride (PVDF) filter and blocked with Tween 20 containing Tris-buffered saline [TBST; 10 mM Trizma base (pH 7.4), 1% Tween 20, and 150 mM NaCl] with 5% skim milk. After incubation with antiserum against iNOS (BD PharMingen, CA), or hRas (Upstate Biotechnology, CA), or phospho-specific MAPK (p42/44) (Signal Transduction), in PVDF buffer for 2 h at room temperature, the filters were washed 3 times with TBST buffer and then incubated with horseradish peroxidase conjugated anti-rabbit or mouse IgG for 1 h. The membranes were autoradiographed by using ECL-plus (Amersham Pharmacia Biotech) after washing with TBST buffer. RT-PCR amplification. […] PCR amplification was conducted in 25 ? l of reaction mixture with 1.0 ? l of cDNA, […] and under the manufacturer's Taq polymerase conditions (Takara, […] Shuzo Co. Ltd, Japan). The sequence of primers used for PCR amplification are as follows; iNOS, (Forward-[NT], Reverse-[NT]), GalT-2 (Forward-[NT], Reverse-[NT]), GAPDH (Forward-[NT], Reverse-[NT]).
# iNOS [2] = experiment: LPS/IFN-induced NO production and iNOS gene expression in primary astrocytes
substance,measurement,setting,value
lactosylceramide [LacCer],effect on D-PDMP inhibition of ERK 1/2 phosphorylation,ERK1/2,reversed
same,levels of phosphorylated IκB,NF-κB; LacCer added to D-PDMP,increased
same,effect on D-PDMP inhibition of NF-κB DNA binding activity,NF-κB; exogenous LacCer with D-PDMP,reversed
same,effect on D-PDMP inhibition of κB-repeat luciferase activity,NF-κB; exogenous LacCer with D-PDMP,effectively bypassed
same,effect on D-PDMP reduction of Ras activation,small GTPase Ras,fully reversed
same,effect on D-PDMP inhibition of NO production,iNOS [1],reversed
same,effect on D-PDMP inhibition of iNOS mRNA and protein expression,iNOS [1],reversed
same,effect on D-PDMP mediated inhibition of iNOS gene expression,iNOS [2]; LacCer 5 and 10 μM with D-PDMP 50 μM before LPS/IFN,blunted
same,effect on PD98059 inhibition of iNOS gene expression,iNOS [2]; exogenous LacCer with PD98059,no effect
same,effect on D-PDMP mediated inhibition of NO production,"iNOS [2]; glycosphingolipid 5 and 10 μM added with D-PDMP 50 μM, 0.5 hr before LPS/IFN, 24 hrs",blunted
